Experimental findings from patent US10112929B2, “Lactams as inhibitors of rock” (BRISTOL-MYERS SQUIBB COMPANY, priority 2015, dated 2018) are described below.

Where a name gives a salt, the structure may show the parent alone. Bounds are passed on as bounds.

As usually defined, the IC50 is the concentration that gives 50% inhibition. A high value points to weaker potency in that assay.
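Further: rho kinase enzyme reaction halted with EDTA, phospho- and non-phospho peptide separated for read-out, kinase activity inhibition derived across a dose-response series, DMSO under 2%.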

Sequence of ROCK2 (O75116 whole entry, species assumed): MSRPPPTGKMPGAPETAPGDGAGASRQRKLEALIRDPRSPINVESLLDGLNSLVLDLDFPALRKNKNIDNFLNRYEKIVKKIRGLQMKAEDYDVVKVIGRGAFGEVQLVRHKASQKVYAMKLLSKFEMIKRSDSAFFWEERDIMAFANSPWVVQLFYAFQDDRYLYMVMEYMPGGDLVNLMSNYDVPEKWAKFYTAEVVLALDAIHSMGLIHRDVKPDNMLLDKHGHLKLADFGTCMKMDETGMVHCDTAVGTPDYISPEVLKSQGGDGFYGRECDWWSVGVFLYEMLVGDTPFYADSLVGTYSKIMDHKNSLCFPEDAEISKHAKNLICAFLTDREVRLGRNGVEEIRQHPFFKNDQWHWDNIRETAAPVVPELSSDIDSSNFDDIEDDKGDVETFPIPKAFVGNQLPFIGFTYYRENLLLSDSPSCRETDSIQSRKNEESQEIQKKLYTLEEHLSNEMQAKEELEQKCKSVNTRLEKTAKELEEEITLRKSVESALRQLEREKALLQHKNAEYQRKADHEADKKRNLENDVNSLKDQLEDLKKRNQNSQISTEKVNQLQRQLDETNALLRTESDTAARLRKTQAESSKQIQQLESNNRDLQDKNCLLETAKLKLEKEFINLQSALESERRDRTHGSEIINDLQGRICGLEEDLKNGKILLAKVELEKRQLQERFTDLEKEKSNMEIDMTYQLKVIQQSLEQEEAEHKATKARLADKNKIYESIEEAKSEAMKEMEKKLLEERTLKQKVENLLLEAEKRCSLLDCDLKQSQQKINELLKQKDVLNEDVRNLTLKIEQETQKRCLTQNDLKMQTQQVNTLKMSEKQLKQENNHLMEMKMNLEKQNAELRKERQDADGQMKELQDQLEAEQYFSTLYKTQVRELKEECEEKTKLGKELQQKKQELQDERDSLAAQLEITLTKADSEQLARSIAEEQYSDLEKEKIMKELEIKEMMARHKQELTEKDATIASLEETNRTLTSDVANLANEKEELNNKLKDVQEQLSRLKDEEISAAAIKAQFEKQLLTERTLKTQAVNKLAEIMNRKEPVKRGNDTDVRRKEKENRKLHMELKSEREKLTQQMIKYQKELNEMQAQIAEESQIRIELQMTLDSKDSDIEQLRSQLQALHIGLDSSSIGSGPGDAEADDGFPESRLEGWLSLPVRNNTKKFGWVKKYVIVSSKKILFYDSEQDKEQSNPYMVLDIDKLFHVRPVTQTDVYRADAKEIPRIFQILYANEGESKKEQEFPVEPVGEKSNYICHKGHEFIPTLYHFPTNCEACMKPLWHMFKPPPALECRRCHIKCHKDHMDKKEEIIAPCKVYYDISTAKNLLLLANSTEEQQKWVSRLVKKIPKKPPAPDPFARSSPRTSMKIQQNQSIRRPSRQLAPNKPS

This assay addresses ROCK2 (Homo sapiens (Human), UniProt O75116). Briefly: biochemical.
`COc1nc(N2CCC(Nc3cccc(OC(C)C)c3)C2=O)ccc1-c1cn[nH]c1` (racemic) [Example 267, 3-((3-isopropoxyphenyl)amino)-1-(6-methoxy-5-(1H-pyrazol-4-yl)pyridin-2-yl)pyrrolidin-2-one] had an IC50 of 10 to 100 nM.

In turn, `COc1cccc(NC2CCN(c3ccc(-c4ccncc4F)c(C)n3)C2=O)c1` (single isomer, unassigned) [Example 121, 1-(3′-fluoro-2-methyl-[3,4′-bipyridin]-6-yl)-3-((3-methoxyphenyl)amino)pyrrolidin-2-one] had an IC50 of 100 to 2200 nM.

Consider `COc1cc(NC2CCN(c3ccc(-c4cn[nH]c4)c(C(F)F)c3)C2=O)ccc1F` (single isomer, unassigned) [Example 180, 1-(3-(difluoromethyl)-4-(1H-pyrazol-4-yl)phenyl)-3-((4-fluoro-3-methoxyphenyl)amino)pyrrolidin-2-one], for which the IC50 was 100 to 2200 nM.

For the compound `COc1cccc(NC2CCN(c3ccc(-c4cn[nH]c4)cc3)C2=O)c1C` (single isomer, unassigned) [Example 325, 1-(4-(1H-pyrazol-4-yl)phenyl)-3-((3-methoxy-2-methylphenyl)amino) pyrrolidin-2-one], the IC50 lay in the range of 10 to 100 nM.

In turn, `COc1nc(N2CCC(N3CCC(OC)CC3)C2=O)ccc1-c1cn[nH]c1` (racemic) [Example 291, 1-(6-methoxy-5-(1H-pyrazol-4-yl)pyridin-2-yl)-3-(4-methoxypiperidin-1-yl)pyrrolidin-2-one hydrochloride] returned an IC50 of 100 to 2200 nM.

`COc1cccc(NC2CCN(c3ccc(-c4cn[nH]c4)c(Cl)c3)C2=O)c1` (single isomer, unassigned) [Example 165, 1-(3-chloro-4-(1H-pyrazo1-4-yl)phenyl)-3 ((3-methoxyphenyl)amino)pyrrolidin-2-one] showed an IC50 of 10 to 100 nM.

As for `COc1nc(N2CCC(Nc3cccc(OC(F)F)c3)C2=O)ccc1-c1cn[nH]c1` (single isomer, unassigned) [Example 220, 3-((3-(difluoromethoxy)phenyl)amino)-1-(6-methoxy-5-(1H-pyrazol-4-yl)pyridin-2-yl)pyrrolidin-2-one], the IC50 is less than 10 nM.

As for `COc1nc(N2CCC(N3CCOc4ccccc43)C2=O)ccc1-c1cn[nH]c1` (single isomer, unassigned) [Example 229, 3-(2H-benzo[b][1,4]oxazin-4(3H)-yl)-1-(6-methoxy-5-(1H-pyrazol-4-yl)pyridin-2-yl)pyrrolidin-2-one], the IC50 fell in the range of 10 to 100 nM.

With `COc1nc(N2CCC(Nc3cccc(S(=O)(=O)N4CCOCC4)c3)C2=O)ccc1-c1cn[nH]c1` (racemic) [Example 264, 1-(6-methoxy-5-(1H-pyrazol-4-yl)pyridin-2-yl)-3-((3-(morpholinosulfonyl)phenyl)amino)pyrrolidin-2-one], the IC50 is 10 to 100 nM.

As for `COc1cc(F)cc(NC2CCN(c3ccc(-c4cn[nH]c4)cc3Cl)C2=O)c1` (single isomer, unassigned) [Example 168, 1-(2-chloro-4-(1H-pyrazol-4-yl)phenyl)-3 ((3-fluoro-5-methoxyphenyl)amino) pyrrolidin-2-one], the 50% inhibitory concentration (IC50) was in the range of 100 to 2200 nM.

The compound `COc1cccc(NC2CCN(c3cc(F)c(-c4cn[nH]c4)cc3F)C2=O)c1` (single isomer, unassigned) [Example 353, 1-(2,5-difluoro-4-(1H-pyrazol-4-yl)phenyl)-3-((3-methoxyphenyl)amino)pyrrolidin-2-one] showed an IC50 of 10 to 100 nM.

`COc1cc(F)cc(NC2CCN(c3ccc(-c4cn[nH]c4)c(F)c3F)C2=O)c1` (single isomer, unassigned) [Example 309, 1-(2,3-difluoro-4-(1H-pyrazol-4-yl)phenyl)-3-((3-fluoro-5-methoxyphenyl)amino)pyrrolidin-2-one]: the IC50 lay in the range of 10 to 100 nM.

`CCc1cc(N2CCC(Nc3cc(F)cc(OC)c3)C2=O)ccc1-c1cn[nH]c1` (single isomer, unassigned) [Example 245, 1-(3-ethyl-4-(1H-pyrazol-4-yl)phenyl)-3-((3-fluoro-5-methoxyphenyl)amino) pyrrolidin-2-one] showed an IC50 of 10 to 100 nM.

In turn, `COc1cc(F)cc(NC2CCN(c3ccc(-c4cn[nH]c4)c(F)c3F)C2=O)c1` (single isomer, unassigned) [Example 310, 1-(2,3-difluoro-4-(1H-pyrazol-4-yl)phenyl)-3-((3-fluoro-5-methoxyphenyl)amino)pyrrolidin-2-one] showed an IC50 of less than 10 nM.

`COc1cc(F)cc(NC2CCN(c3ccc(-c4cn[nH]c4)cc3)C2=O)c1` (single isomer, unassigned) [Example 26, 1-(4-(1H-pyrazol-4-yl)phenyl)-3-((3-fluoro-5-methoxyphenyl)amino)pyrrolidin-2-one] yielded an IC50 of less than 10 nM.

`COc1nc(N2CCC(N3CCOc4ccccc43)C2=O)ccc1-c1cn[nH]c1` (racemic) [Example 225, 3-(2H-benzo[b][1,4]oxazin-4(3H)-yl)-1-(6-methoxy-5-(1H-pyrazol-4-yl)pyridin-2-yl)pyrrolidin-2-one] yielded an IC50 of less than 10 nM.

With `COc1nc(N2CCC(Nc3ccc4c(c3)OCCO4)C2=O)ccc1-c1cn[nH]c1` (racemic) [Example 256, 3-((2,3-dihydrobenzo[b][l,4]dioxin-6-yl)amino)-1-(6-methoxy-5-(1H-pyrazol-4-yl)pyridin-2-yl)pyrrolidin-2-one], the IC50 was in the range of 10 to 100 nM.

Consider `COc1cc(F)cc(NC2CCN(c3ccc(-c4cn[nH]c4)c(F)c3)C2=O)c1` (single isomer, unassigned) [Example 49, 1-(3-fluoro-4-(1H-pyrazol-4-yl)phenyl)-3-((3-fluoro-5-methoxyphenyl)amino)pyrrolidin-2-one], for which the IC50 was less than 10 nM.

Consider `COc1nc(N2CCC(N3CCOc4ccccc43)C2=O)ccc1-c1cn[nH]c1` (single isomer, unassigned) [Example 230, 3-(2H-benzo[b][1,4]oxazin-4(3H)-yl)-1-(6-methoxy-5-(1H-pyrazol-4-yl)pyridin-2-yl)pyrrolidin-2-one], for which the IC50 was less than 10 nM.

Turning to `COc1cccc(C(=O)NC2CCN(c3ccc(-c4cn[nH]c4)cc3)C2=O)c1` (stereo not drawn) [Example 65, N-(1-(4-(1H-Pyrazol-4-yl)phenyl)-2-oxopyrrolidin-3-yl)-3-methoxybenzamide], the IC50 lay within 100 to 2200 nM.

In turn, `COc1nc(N2CCC(N3CCC(CO)CC3)C2=O)ccc1-c1cn[nH]c1` (racemic) [Example 289, 3-(4-(hydroxymethyl)piperidin-1-yl)-1-(6-methoxy-5-(1H-pyrazol-4-yl)pyridin-2-yl)pyrrolidin-2-one] yielded an IC50 of 10 to 100 nM.

`COc1cc(NC2CCN(c3ccc(-c4cn[nH]c4)cc3)C2=O)cc(OC)c1` (single isomer, unassigned) [Example 21, 1-(4-(1H-pyrazol-4-yl)phenyl)-3-((3,5-dimethoxyphenyl)amino)pyrrolidin-2-one] came in with an IC50 of 100 to 2200 nM.

`COc1cccc(NC2CCN(c3ccc(-c4cn[nH]c4)c(OC(F)F)c3)C2=O)c1` (single isomer, unassigned) [Example 114, 1-(3-(difluoromethoxy)-4-(1H-pyrazol-4-yl)phenyl)-3-((3-methoxyphenyl)amino)pyrrolidin-2-one] showed an IC50 of 10 to 100 nM.

`COc1cc(F)cc(NC2CCN(c3ccc(-c4cn[nH]c4)nc3)C2=O)c1` (single isomer, unassigned) [Example 301, 1-(6-(1H-pyrazol-4-yl)pyridin-3-yl)-3-((3-fluoro-5-methoxyphenyl)amino)pyrrolidin-2-one] returned an IC50 of 10 to 100 nM.

For `COc1ccc(N[C@@H]2CCN(c3ccc(-c4cn[nH]c4)cc3)C2=O)cc1OC` [Example 389, (R)-1-(4-(1H-pyrazol-4-yl)phenyl)-3-((3,4-dimethoxyphenyl)amino)pyrrolidin-2-one], the IC50 fell in the range of 100 to 2200 nM.

`COc1cccc(OC2CCN(c3ccc(-c4cn[nH]c4)c(OC)n3)C2=O)c1` (single isomer, unassigned) [Example 170, 1-(6-methoxy-5-(1H-pyrazol-4-yl)pyridin 2-yl)-3-(3-methoxyphenoxy)pyrrolidin-2-one] came in with an IC50 of 10 to 100 nM.

In turn, `COc1cccc(NC2CCN(c3ccc(-c4cn[nH]c4)c(OC)c3)C2=O)c1` (single isomer, unassigned) [Example 74, 1-(3-methoxy-4-(1H-pyrazol-4-yl)phenyl)-3-((3-methoxyphenyl)amino)pyrrolidin-2-one] registered an IC50 of less than 10 nM.

As to `COc1cc(F)cc(NC2CCN(c3cc(F)c(-c4cn[nH]c4)cc3F)C2=O)c1` (single isomer, unassigned) [Example 351, 1-(2,5-difluoro-4-(1H-pyrazol-4-yl)phenyl)-3-((3-fluoro-5-methoxyphenyl)amino)pyrrolidin-2-one], the IC50 fell in the range of 10 to 100 nM.

Regarding `COc1cccc(NC2CCN(c3cc(F)c(-c4cn[nH]c4)c(F)c3)C2=O)c1` (single isomer, unassigned) [Example 311, 1-(3,5-difluoro-4-(1H-pyrazol-4-yl)phenyl)-3-((3-methoxyphenyl)amino)pyrrolidin-2-one], the IC50 was less than 10 nM.

The compound `COc1nc(N2CCC(N3CCCC(F)C3)C2=O)ccc1-c1cn[nH]c1` (racemic) [Example 283, 3-(3-fluoropiperidin-1-yl)-1-(6-methoxy-5-(1H-pyrazol-4-yl)pyridin-2-yl)pyrrolidin-2-one hydrochloride] had an IC50 of 10 to 100 nM.

Regarding `O=C1C(Nc2ccc(F)cc2F)CCN1c1ccc(-c2cn[nH]c2)cc1` (single isomer, unassigned) [Example 25, 1-(4-(1H-pyrazol-4-yl)phenyl)-3-((2,4-difluorophenyl)amino)pyrrolidin-2-one], the IC50 was 10 to 100 nM.

With `COc1cc(F)cc(NC2CCN(c3ccc(-c4cn[nH]c4)c(C)n3)C2=O)c1` (single isomer, unassigned) [Example 192, 3-((3-fluoro-5-methoxyphenyl)amino)-1-(6-methyl-5-(1H-pyrazol-4-yl)pyridin-2-yl)pyrrolidin-2-one], the IC50 fell in the range of 10 to 100 nM.

In turn, `COc1cc(F)cc(NC2CCN(c3ccc(-c4cn[nH]c4)c(C(F)(F)F)c3)C2=O)c1` (single isomer, unassigned) [Example 369, 1-(4-(1H-pyrazol-4-yl)-3-(trifluoromethyl)phenyl)-3-((3-fluoro-5-methoxyphenyl)amino)pyrrolidin-2-one] yielded an IC50 of 100 to 2200 nM.
